From patent US3959252A, “Alkamoyl-josamycins” (Yamanouchi Pharmaceutical Co., Ltd., priority 1968, dated 1976)
Read-outs that look alike come from different tables or passages of the source.

How the values were obtained:
[1] = system: Staphylococcus aureus PC, CP, TC, SA resistant; assay: MIC, agar dilution on nutrient agar; assay type: cell-based; settings: acetylated Josamycins as Josamycin equivalent, read-out: Minimum Inhibitory Concentration (MIC)
Protocol: (§1) Experimental procedure: Minimum inhibitory concentrations (MIC) were determined as to Josamycin, monoacetyl-josamycin-1, monoacetyl-josamycin-2and diacetyl-josamycin, according to usual agar dilution method on nutrient agar.

Mycobacterium 607 = assay: MIC, agar dilution on nutrient agar; assay type: cell-based; settings: acetylated Josamycins as Josamycin equivalent, read-out: Minimum Inhibitory Concentration (MIC)
Protocol: as §1

[2] = system: Staphylococcus aureus PC, SM, TC, EM, SA resistant; assay: MIC, agar dilution on nutrient agar; assay type: cell-based; settings: acetylated Josamycins as Josamycin equivalent, read-out: Minimum Inhibitory Concentration (MIC)
Protocol: as §1

Escherichia coli PCI 602 = assay: MIC, agar dilution on nutrient agar; assay type: cell-based; settings: PCI602, acetylated Josamycins as Josamycin equivalent, read-out: Minimum Inhibitory Concentration (MIC)
Protocol: as §1

[3] = system: Staphylococcus aureus FDA 209P; assay: MIC, agar dilution on nutrient agar; assay type: cell-based; settings: FDA209P, acetylated Josamycins as Josamycin equivalent, read-out: Minimum Inhibitory Concentration (MIC)
Protocol: as §1

[4] = system: Staphylococcus aureus FDA 209P Smith; assay: MIC, agar dilution on nutrient agar; assay type: cell-based; settings: FDA209P, acetylated Josamycins as Josamycin equivalent, read-out: Minimum Inhibitory Concentration (MIC)
Protocol: as §1

[5] = system: Shigella flexneri 2a 1675; assay: MIC, agar dilution on nutrient agar; assay type: cell-based; settings: 2A1675, acetylated Josamycins as Josamycin equivalent, read-out: Minimum Inhibitory Concentration (MIC)
Protocol: as §1

Salmonella typhi H 901W = assay: MIC, agar dilution on nutrient agar; assay type: cell-based; settings: Salmonella enterica, read-out: Minimum Inhibitory Concentration (MIC)
Protocol: as §1

[6] = system: Bacillus subtilis ATCC 6635; assay: MIC, agar dilution on nutrient agar; assay type: cell-based; settings: ATCC6635, acetylated Josamycins as Josamycin equivalent, read-out: Minimum Inhibitory Concentration (MIC)
Protocol: as §1

pKa' measurement = assay type: physicochemical; settings: 40% aqueous methanol
From the text: 4. pKa' less than 6 (measured in 40% aqueous methanol)
4. pKa 7.03 (measured in 40% aqueous methanol)

[7] = system: Staphylococcus aureus Smith; assay: Protection of mice from systemic staphylococcal infection; assay type: in vivo; settings: 5 mice, control 0 of 10
From the text: Experimental procedure: Group of 5 mice were inoculated intraperitoneally with 1000 MLD (containing 5% of mucin added) of Staphylococcus aureus Smith. Immediately after the infection, a single dose of each antibiotic was given orally. The survival of mice after 7 days was observed. The group for control (10 mice) was given no antibiotic.

[8] = Josamycin base, as described; cited from earlier work
[9] = system: Staphylococcus aureus No. 226 strain; assay: Protection of mice from subcutaneous Staphylococcal infection; assay type: in vivo; settings: 48 hours, control 88.2
Protocol: Experimental procedure: Groups of 5 mice were inoculated subcutaneously in the back with 10^8 cells (in 0.1 ml volume) of Staphylococcus aureus No. 226 strain. Immediately after the infection, Josamycin or monoacetyl-josamycin-2 was administered orally. To the control group, no medicament was administered. After 48 hours, the animals were killed. The skin of the back of each mouse was cut open, and the size of subcutaneous abscess was measured.

[10] = system: staphylococci resistant to streptothricin, telomycin, streptomycin, chloramphenicol, or penicillin; settings: cited from earlier work
[11] = titrated in aqueous methanol; base form; cited from earlier work
[12] = 50 mg/kg oral single dose (as Josamycin equivalent)
[13] = 150 mg/kg oral single dose (as Josamycin equivalent)
[14] = 500 mg/kg oral single dose (as Josamycin equivalent)
[15] = 200 mg/kg oral (as Josamycin equivalent)

Row | SMILES | MIC [1] [µg/mL] | MIC (Mycobacterium 607) [µg/mL] | MIC [2] [µg/mL] | MIC (Escherichia coli PCI 602) [µg/mL] | MIC [3] [µg/mL] | MIC [4] [µg/mL] | MIC [5] [µg/mL] | MIC (Salmonella typhi H 901W) [µg/mL] | MIC [6] [µg/mL] | Survival on 7th day (number of mice) [7, 12] | Survival on 7th day (number of mice) [7, 13] | Survival on 7th day (number of mice) [7, 14] | Size of abscess [9, 15] [mm^2] | Solubility (easily soluble solvents) (Solubility) | Solubility (hardly soluble solvents) (Solubility) | Solubility (soluble solvents) (Solubility) | pKa (pKa' measurement; read-out: pKa') | other results
1 | COC1C(OC(C)=O)CC(=O)OC(C)C/C=C/C=C/C(OC(C)=O)C(C)CC(CC=O)C1OC1OC(C)C(OC2CC(C)(O)C(OC(=O)CC(C)C)C(C)O2)C(N(C)C)C1OC(C)=O (centres unmarked) [Diacetyl-josamycin, diacetyl-josamycin] | 0.78 | 3.1 | > 100 | > 100 | 0.39 | 0.39 | 50 | > 100 | 0.39 | – | – | – | – | – | – | – | – | pKa (pKa' measurement): < 6
2 | CO[C@@H]1[C@@H](O[C@@H]2O[C@H](C)[C@@H](O[C@H]3C[C@@](C)(O)[C@@H](OC(=O)CC(C)C)[C@H](C)O3)[C@H](N(C)C)[C@H]2O)[C@@H](CC=O)C[C@@H](C)[C@@H](O)/C=C/C=C/C[C@@H](C)OC(=O)C[C@H]1OC(C)=O [Josamycin] | 0.78 | 3.1 | > 100 | > 100 | 0.39 | 0.39 | 50 | > 100 | 0.39 | 0 | 2 | 5 | 4.19 | – | – | – | – | Solubility (easily soluble solvents) [8]: easily soluble in acidic water, methanol, ethanol, chloroform, ethyl acetate, and acetone; Solubility (slightly soluble solvents) [8]: slightly soluble in water, petroleum ether, ligroin, and n-hexane; Solubility (soluble solvents) [8]: soluble in benzene, ether and carbon tetrachloride; Size of abscess ([9]; 50 mg/kg oral): 21.2 mm^2; Inhibition of growth of resistant staphylococci [10]: inhibits the growth; pKa' [11]: 7.1
3 | COC1C(OC(C)=O)CC(=O)OC(C)C/C=C/C=C/C(O)C(C)CC(CC=O)C1OC1OC(C)C(OC2CC(C)(O)C(OC(=O)CC(C)C)C(C)O2)C(N(C)C)C1OC(C)=O (centres unmarked) [Monoacetyl-josamycin-1, 2'-acetyl-josamycin] | 0.78 | 3.1 | > 100 | > 100 | 0.39 | 0.39 | 50 | > 100 | 0.39 | – | – | – | – | easily soluble in acetone, methylethylketone, chloroform, ethyl acetate and benzene | hardly soluble in water, petroleum ether and n-hexane | soluble in methanol and ethanol | < 6 | –
4 | COC1C(OC(C)=O)CC(=O)OC(C)C/C=C/C=C/C(OC(C)=O)C(C)CC(CC=O)C1OC1OC(C)C(OC2CC(C)(O)C(OC(=O)CC(C)C)C(C)O2)C(N(C)C)C1O (centres unmarked) [Monoacetyl-josamycin-2, monoacetyl-josamycin-2] | 0.78 | 3.1 | > 100 | > 100 | 0.39 | 0.39 | 50 | > 100 | 0.39 | 0 | 3 | 5 | 0.64 | easily soluble in acetone, chloroform, methanol, ethyl acetate and ethylether | hardly soluble in water, petroleum ether and n-hexane | soluble in carbon tetrachloride | 7.03 | –
